Laboratory results as given in patent US5411965A, “Use of delta opioid receptor antagonists to treat cocaine abuse” (Arizona Board of Regents, priority 1993, dated 1995).
“Also recorded” adds a separate entry of the source.

Key:
[1] = assay type: in vivo, rats
Excerpt: When rats are fixed with chronically indwelling bipolar electrodes for electrical stimulation of the medial forebrain bundle, they will press levers for brief durations of stimulation. The higher the intensity of stimulation, the greater the pressing. […] These relationships plus extant theory provide the rationale for using pressing for brain stimulation as a means of assessing the reinforcing effects of drugs and assessing which drugs might affect another drug's reinforcing effects.
The particulars of the procedures used herein are briefly summarized. Further information is in Reid (cited above) and Reid et al. (Life Sciences, 52, PL67-71 (1993)). Rats were fixed with chronically indwelling bipolar electrodes. Using standard stereotaxic methods, which includes full anesthesia, the tips of the electrode were aimed to stimulate the medial forebrain bundle as it traverses the lateral hypothalamus. With the skull held in a stereotaxic instrument so that a plane between bregma and lamba was perpendicular to the shaft of the electrode, the following stereotaxic coordinates were used: 3.5 mm posterior to brema, 1.6 mm lateral to the midline, and 8.6 mm below the surface of the skull.
The apparatus of these tests was a Skinner box (24×30 ×38 cm) equipped with a lever (2.5×2 cm). Each box was fixed with electrical leads and a slip-ring apparatus that allowed the rat to be connected to the electrical stimulator for intracranial stimulation, but allowed the rat to move freely in the box.
Upon full recovery from surgery, rats were trained to press a lever in the Skinner box for electrial stimulation of the brain. The electrical stimulation was 60 Hz sine waves of 0.3 sec. The maximum intensity used was of 50 microAmps. Each lever press delivered one 0.3-sec of brain stimulation.
Just after rats learned to press the lever, the intensity of the brain stimulation was varied. Three intensities were chosen. The lowest intensity was one that was barely sufficient to sustain lever pressing. The highest intensity sustained high rates of pressing, but not the highest rates that a rat can achieve. The medium intensity was about midway between the lowest and the highest. Once a set of intensities were established for each rat, those intensities remained fixed throughout the balance of testing. […] Each rat was under a daily regimen. They were allowed to press for each of three intensities of brain stimulation for 10 minutes. […] They were allowed to press the lever under this daily regimen under level-pressing rates became stable. Then, drugs (or placebos) were administered.
The methods of Example 5 were nearly the same as those of Example 4. Rats were fixed, using standard procedures, with chronically indwelling electrodes for stimulation of the medial forebrain bundle. Subsequent to recovery from surgery, they were trained to press for brain stimulation. After each learned to press, they were put on a daily regimen. That daily regimen involved pressing for 5 min at a high intensity of brain stimulation, followed by 5-minute sessions with medium, low, low, medium and then high intensity. Intensities were set for each rat so that pressing rate for the low intensity was rather slow (the low intensity being near lower threshold for maintaining pressing), pressing for the high intensity was at a high rate, and pressing for the medium intensity was between the rate for low and high intensity. Pressing at each intensity was averaged for an index of rat's responsiveness at that intensity.

kappa opioid receptor = details: agonist ethylketazocine in GPI; antagonist 100 or 200 nM, 15 min; read-out: Ke, EK; cited from earlier work
mu opioid receptor = details: agonist morphine in GPI; antagonist 100 or 200 nM, 15 min; read-out: Ke; cited from earlier work
[2] = system: mouse vas deferens (MVD) and guinea pig ileum (GPI); assay: Agonist activity in MVD and GPI preparations; assay type: cell-based; details: in words
Procedure: 1. Guinea Pig Ileal Longitudinal Muscle (GPI). Ilea from guinea pigs were taken approximately 10 cm from the ileocaecal junction, and a strip of longitudinal muscle with the myenteric plexus attached was prepared by method of Rang et al., Brit. J. Pharmacol., 22, 356 (1964), the disclosure of which is incorporated by reference herein. A 1 cm portion of this strip was then mounted between two platinum electrodes placed in a 10 ml organ bath and connected to an isometric transducer. Contractions were recorded on a polygraph. […] The organ bath was maintained at 36°-37° C. The longitudinal muscle strip was allowed to equilibrate with continuous stimulation for a minimum of 90 min.
(§1) 2. Mouse Vas Deferens (MVD). […] The organ bath was maintained at 37° C.

delta opioid receptor = delta opioid receptor (Mus musculus, UniProt P32300); assay: Antagonism of DADLE in the mouse vas deferens (MVD) preparation; assay type: cell-based; details: in words
Procedure: Furthermore, the MVD responds selectively to delta opioids.
as §1

[3] = cited from earlier work

Chain of delta opioid receptor (P32300 whole entry): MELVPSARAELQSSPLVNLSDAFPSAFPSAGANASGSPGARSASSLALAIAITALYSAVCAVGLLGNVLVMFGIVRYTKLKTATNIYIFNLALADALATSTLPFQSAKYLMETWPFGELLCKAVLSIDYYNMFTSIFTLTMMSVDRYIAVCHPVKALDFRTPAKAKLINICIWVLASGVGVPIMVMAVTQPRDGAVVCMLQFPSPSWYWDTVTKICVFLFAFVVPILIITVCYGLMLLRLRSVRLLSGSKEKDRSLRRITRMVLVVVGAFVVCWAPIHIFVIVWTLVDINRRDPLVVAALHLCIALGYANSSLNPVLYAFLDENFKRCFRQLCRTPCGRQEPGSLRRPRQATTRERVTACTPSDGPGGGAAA

CC(N)Cc1ccccc1 (centres unmarked) [Amphetamine, phenylisopropylamine, reference compound]
pressing for brain stimulation, amphetamine alone ([1]; rat, in vivo): produced an increment in pressing; also recorded: produced increased pressing compared to pressing under the influence of placebo

O=C1C(=Cc2ccccc2)C[C@@]2(O)[C@H]3Cc4ccc(O)c5c4[C@@]2(CCN3CC2CC2)[C@H]1O5 [BNTX, 7-benzylidenenaltrexone]
pressing for brain stimulation, BNTX plus cocaine ([1]; rat, in vivo): reduced cocaine's (5 mg/kg) facilitation of pressing for rewarding brain stimulation in a fashion similar to the reduction observed for NTI; also recorded: extraordinarily effective in blocking cocaine's salient effects

Cn1c2c(c3ccccc31)C[C@@]1(O)[C@H]3Cc4ccc(O)c5c4[C@@]1(CCN3CC1CC1)[C@H]2O5 [Compound 2]
Kb (kappa opioid receptor): 0.0222 µM | Kb (mu opioid receptor): 0.0125 µM

Oc1ccc2c3c1O[C@H]1c4[nH]c5ccc(F)cc5c4C[C@@]4(O)[C@@H](C2)N(CC2CC2)CC[C@]314 [Compound 3]
Kb (kappa opioid receptor): 0.0462 µM | Kb (mu opioid receptor): 0.0617 µM

COc1ccc2[nH]c3c(c2c1)C[C@@]1(O)[C@H]2Cc4ccc(O)c5c4[C@@]1(CCN2CC1CC1)[C@H]3O5 [Compound 4]
Kb (kappa opioid receptor): 0.0126 µM | Kb (mu opioid receptor): 0.063 µM

Cc1ccc2[nH]c3c(c2c1)C[C@@]1(O)[C@H]2Cc4ccc(O)c5c4[C@@]1(CCN2CC1CC1)[C@H]3O5 [Compound 5]
Kb (kappa opioid receptor): > 0.25 µM | Kb (mu opioid receptor): > 0.16 µM

O=[N+]([O-])c1ccc2[nH]c3c(c2c1)C[C@@]1(O)[C@H]2Cc4ccc(O)c5c4[C@@]1(CCN2CC1CC1)[C@H]3O5 [Compound 6]
Kb (kappa opioid receptor): ≥ 0.2 µM | Kb (mu opioid receptor): 0.092 µM

CN1CC[C@]23c4c5ccc(O)c4O[C@H]2c2[nH]c4ccccc4c2C[C@@]3(O)[C@H]1C5 [Compound 7]
agonist activity [2]: exhibited partial agonist activity | antagonism of the effect of the delta agonist DADLE (delta opioid receptor): inactive

Oc1ccc2c3c1O[C@H]1c4oc5ccccc5c4C[C@@]4(O)[C@@H](C2)N(CC2CC2)CC[C@]314 [Compound 8, 17-(cyclopropylmethyl)-6,7-dehydro-3,14β-dihydroxy-4,5α-epoxy-6,7-2',3'-benzo[b]furanomorphinan]
delta antagonist potency and selectivity (delta opioid receptor): less potent and less selective than 1 as a delta antagonist, nevertheless retains substantial delta antagonist activity | Kb (kappa opioid receptor): 0.0508 µM | Kb (mu opioid receptor): 0.0308 µM

Oc1ccc2[nH]c3c(c2c1)C[C@@]1(O)[C@H]2Cc4ccc(O)c5c4[C@@]1(CCN2CC1CC1)[C@H]3O5 [Compound 9]
Kb (kappa opioid receptor): 0.0685 µM | Kb (mu opioid receptor): 0.0272 µM

Oc1ccc2c3c1O[C@H]1c4[nH]c5cccc(F)c5c4C[C@@]4(O)[C@@H](C2)N(CC2CC2)CC[C@]314 [Compound 10]
Kb (kappa opioid receptor): > 0.17 µM | Kb (mu opioid receptor): > 0.125 µM

Oc1ccc2c3c1O[C@H]1c4[nH]c5c(F)cccc5c4C[C@@]4(O)[C@@H](C2)N(CC2CC2)CC[C@]314 [Compound 11]
Kb (kappa opioid receptor): > 0.33 µM | Kb (mu opioid receptor): 0.0053 µM

Cc1cccc2c3c([nH]c12)[C@@H]1Oc2c(O)ccc4c2[C@@]12CCN(CC1CC1)[C@H](C4)[C@]2(O)C3 [Compound 13]
Kb (kappa opioid receptor): > 0.33 µM | Kb (mu opioid receptor): 0.0191 µM

COc1cccc2c3c([nH]c12)[C@@H]1Oc2c(O)ccc4c2[C@@]12CCN(CC1CC1)[C@H](C4)[C@]2(O)C3 [Compound 14]
Kb (mu opioid receptor): 0.035 µM

Oc1ccc2c3c1O[C@H]1c4nc5ccccc5nc4C[C@@]4(O)[C@@H](C2)N(CC2CC2)CC[C@]314 [Compound 16]
delta antagonist potency and selectivity (delta opioid receptor): A similar relationship was observed | Kb (kappa opioid receptor): 0.0134 µM | Kb (mu opioid receptor): 0.0061 µM

Oc1ccc2c3c1O[C@H]1c4nc5ccccc5cc4C[C@@]4(O)[C@@H](C2)N(CC2CC2)CC[C@]314 [Compound 17]
delta antagonist potency and selectivity (delta opioid receptor): A similar relationship was observed | Kb (kappa opioid receptor): 0.0163 µM | Kb (mu opioid receptor): 0.0113 µM

CNC(C)Cc1ccc2c(c1)OCO2 (centres unmarked) [MDMA, N-monomethyl-3,4-methylenedioxyphenylisopropylamine, reference compound]
conditioned place preference ([3]; drug alone, literature): produces a conditioned place preference among rats | mean presses at High intensity, MDMA plus Placebo ([1]; High intensity of intracranial stimulation, six rats): 922 presses per ten minutes | mean presses at Low intensity, MDMA plus Placebo ([1]; Low intensity of intracranial stimulation, six rats): 288 presses per ten minutes | mean presses at Medium intensity, MDMA plus Placebo ([1]; Medium intensity of intracranial stimulation, six rats): 563 presses per ten minutes | pressing for brain stimulation, MDMA alone ([1]; in words): increased pressing | average increase in pressing, MDMA ([1]; low intensity, factor): four times

O=C1CC[C@@]2(O)[C@H]3Cc4ccc(O)c5c4[C@@]2(CCN3CC2CC2)[C@H]1O5 [naltrexone]
conditioned place aversion ([3]; given alone, literature): condition place aversions | effect on MDMA's conditioned place preference ([3]; rat, in vivo): attenuated but not blocked | effect on cocaine's conditioned place preference ([3]; rat, in vivo): attenuate cocaine's reinforcing properties
